Values joined by “and” are separate entries in the source; they are usually repeats but may differ in a detail not shown here. Equal values may be shown once.
Assays:
[1] = biological target: HDAC8 (Homo sapiens (Human), UniProt Q9BY41); assay: Inhibition of HDAC8; type: biochemical; settings: for IC50 PCI34051/IC50 compound: inhibition of HDAC8, relative potency (Tables 1-3); for A (relative potency to PCI34051): inhibition of HDAC8, footnote: (Tables 11-13); for IC50: mean SD of three determinations; for HDAC8 inhibitory activity compared with PCI34051: result in words
HDAC8, sequence (Q9BY41 whole entry): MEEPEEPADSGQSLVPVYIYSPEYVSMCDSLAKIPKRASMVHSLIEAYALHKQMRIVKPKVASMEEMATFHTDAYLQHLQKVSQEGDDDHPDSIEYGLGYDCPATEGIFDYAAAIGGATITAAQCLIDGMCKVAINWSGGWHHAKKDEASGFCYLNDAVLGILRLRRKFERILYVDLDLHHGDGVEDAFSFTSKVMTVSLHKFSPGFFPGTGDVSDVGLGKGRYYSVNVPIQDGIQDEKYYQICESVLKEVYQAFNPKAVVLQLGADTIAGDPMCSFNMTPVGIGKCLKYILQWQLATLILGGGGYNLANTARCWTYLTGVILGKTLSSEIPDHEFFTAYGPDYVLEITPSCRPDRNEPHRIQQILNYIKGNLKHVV

[2] = tested on: HeLa nuclear HDACs; assay: Inhibition of HeLa nuclear HDACs (HeLa nuclear extract, mainly HDACs1-3); type: biochemical; settings: read-out: HeLa HDAC IC50
[3] = tested on: MV4-11 cells; assay: Survival/apoptosis of MV4-11 AML cells by Annexin V labeling; type: cell-based, human; settings: Homo sapiens, read-out: MV4-11 Apoptosis IC50
[4] = tested on: OCI-AML3 cells; assay: Survival/apoptosis of OCI-AML3 AML cells by Annexin V labeling; type: cell-based, human; settings: Homo sapiens, OCI-AML-3, 48 h, read-out: OCI-AML3 Apoptosis IC50
[5] = tested on: MOLM13 cells; assay: Survival/apoptosis of MOLM13 AML cells by Annexin V labeling; type: cell-based, human; settings: Homo sapiens, read-out: MOLM13 Apoptosis IC50
[6] = tested on: MV4-11 cells; assay: Proliferation of MV4-11 cells, luminescent cell viability assay; type: cell-based, human; settings: Homo sapiens, read-out: MV4-11 Proliferation IC50
[7] = tested on: MOLM13 cells; assay: Proliferation of MOLM13 cells, luminescent cell viability assay; type: cell-based, human; settings: Homo sapiens, read-out: MOLM13 Proliferation IC50
[8] = tested on: CL1-5 cells; assay: Cytotoxicity / anti-proliferative activity in CL1-5 lung cancer cells; settings: read-out: Cytotoxicity IC50 Cl1-5; mean SD of three determinations
[9] = tested on: H1299 cells; assay: Cytotoxicity / anti-proliferative activity in H1299 lung cancer cells; settings: read-out: Cytotoxicity IC50 H1299; mean SD of three determinations
[10] = tested on: Cl1-1 cells; assay: Cytotoxicity / anti-proliferative activity in CL1-1 lung cancer cells; settings: read-out: Cytotoxicity IC50 Cl1-1; mean SD of three determinations

SMILES	IC50 PCI34051/IC50 compound [1]	A (relative potency to PCI34051) [1]	IC50 [2]	IC50 [1]	further results
COc1ccc(/C=C/C(=O)NO)c(-c2cc(OC)c(OC)c(OC)c2)c1 [Compound 5a]	0.29	0.29	> 10 µM	–	–
COc1ccc(/C=C/C(=O)NO)c(-c2cccs2)c1 [Compound 5b]	1.43	1.43	> 10 µM	–	IC50 ([3]; MV4-11, 48 h): 0.524 µM; IC50 [4]: 2.35 µM; IC50 ([5]; MOLM-13, 48 h): 0.345 µM; IC50 ([6]; MV4-11, 48 h): 0.0825 µM; IC50 ([7]; MOLM-13, 48 h): 0.0533 µM
COc1ccc(/C=C/C(=O)NO)c(-c2cccc(Cl)c2)c1 [Compound 5c]	1.17	1.17	> 10 µM	–	–
COc1ccc(/C=C/C(=O)NO)c(-c2ccc(F)cc2)c1 [Compound 5d]	1.90	1.90	> 10 µM	–	–
COc1ccc(/C=C/C(=O)NO)c(-c2ccc3c(c2)OCO3)c1 [Compound 5e]	1.86	1.86	8.55 ± 0.00012 µM	–	IC50 ([3]; MV4-11, 48 h): 11.9 µM; IC50 [4]: 12.5 µM; IC50 ([5]; MOLM-13, 48 h): 11.7 µM; IC50 ([6]; MV4-11, 48 h): 7.49 µM; IC50 ([7]; MOLM-13, 48 h): 3.36 µM
COc1ccc(/C=C/C(=O)NO)c(-c2cccc3[nH]ccc23)c1 [Compound 5f]	0.64	0.64	> 10 µM	–	–
COc1ccc(/C=C/C(=O)NO)c(-c2cncc3ccccc23)c1 [Compound 5g]	0.28	0.28	0.7984 ± 0.0003 µM	–	–
COc1ccc(/C=C/C(=O)NO)c(-c2cnc3ccccc3c2)c1 [Compound 5h]	0.63	0.63	0.836 ± 0.0091 µM	–	IC50 ([3]; MV4-11, 48-hr, Annexin V labeling): ~22700 µM; IC50 ([5]; MOLM-13, 48-hr, Annexin V labeling): 90.9 µM; IC50 ([6]; MV4-11, 48-hr, luminescent cell viability assay): 16.6 µM; IC50 ([7]; MOLM-13, 48-hr, luminescent cell viability assay): 7.17 µM
COc1ccc(/C=C/C(=O)NO)c(Nc2ccccc2)c1 [Compound 6a]	0.40	0.40	> 10 µM	–	–
COc1ccc(/C=C/C(=O)NO)c(Nc2ccccc2OC)c1 [Compound 6b]	0.17	0.17	> 10 µM	–	–
COc1cccc(Nc2cc(OC)ccc2/C=C/C(=O)NO)c1 [Compound 6c]	0.44	0.44	> 10 µM	–	–
COc1ccc(Nc2cc(OC)ccc2/C=C/C(=O)NO)cc1 [Compound 6d]	0.30	0.30	> 10 µM	–	–
COc1ccc(/C=C/C(=O)NO)c(Nc2ccc(OC)c(OC)c2)c1 [Compound 6e]	0.44	0.44	> 10 µM	–	–
COc1ccc(/C=C/C(=O)NO)c(Nc2cc(OC)c(OC)c(OC)c2)c1 [Compound 6f]	0.24	0.24	> 10 µM	–	–
COc1cc(Nc2ncccc2/C=C/C(=O)NO)cc(OC)c1OC [Compound 21]	0.68	0.68	> 10 µM	–	–
COc1ccc(/C=C/C(=O)NO)c(-c2ccccc2)c1 [Compound 22a, (E)-N-Hydroxy-4-methoxy-2-phenylcinnamide]	–	–	> 10 µM	0.072 µM and 0.0724 µM	–
COc1ccc(/C=C/C(=O)NO)c(-c2ccc(Oc3ccccc3)cc2)c1 [Compound 22e, (E)-N-Hydroxy-4-methoxy-2-(4-phenoxyphenyl)cinnamide]	–	–	> 10 µM	0.174 ± 0.0059 µM	fold less potent than 22a (HDAC8) [1]: three
COc1ccc(/C=C/C(=O)NO)c(-c2cccc3c2oc2ccccc23)c1 [Compound 22g, (E)-N-Hydroxy-4-methoxy-2-(dibenzofuran-4-yl)cinnamide]	–	–	> 10 µM	0.0477 ± 0.0007 µM	IC50 [8]: 0.0087 ± 0.0001 µM; IC50 [9]: 0.0066 ± 0.0007 µM; HDAC8 inhibitory activity compared with PCI34051 [1]: superior to PCI34051; IC50 [10]: 0.0085 ± 0.0012 µM
COc1ccc(/C=C/C(=O)NO)c(Oc2cc(OC)c(OC)c(OC)c2)c1 [Compound 25]	0.49	0.49	> 10 µM	–	–
CCCOc1ccc(/C=C/C(=O)NO)c(-c2ccccc2)c1 [Compound 27a, (E)-N-Hydroxy-4-propoxy-2-phenylcinnamide]	–	–	> 10 µM	0.133 ± 0.0126 µM	–
CCCCOc1ccc(/C=C/C(=O)NO)c(-c2ccccc2)c1 [Compound 27b, (E)-N-Hydroxy-4-butoxy-2-phenylcinnamide]	–	–	> 10 µM	0.289 ± 0.0301 µM	–
CCCCCOc1ccc(/C=C/C(=O)NO)c(-c2ccccc2)c1 [Compound 27c, (E)-N-Hydroxy-4-pentoxy-2-phenylcinnamide]	–	–	> 10 µM	0.186 ± 0.0598 µM	–
O=C(/C=C/c1ccc(-c2ccccc2)cc1-c1ccccc1)NO [Compound 27d, (E)-N-Hydroxy-2,4-diphenylcinnamide]	–	–	> 10 µM	0.1749 ± 0.0002 µM	–

Continued, in another order:

IC50 PCI34051/IC50 compound [1]	A (relative potency to PCI34051) [1]	IC50 [2]	SMILES	IC50 [1]	further results
–	–	> 10 µM	COc1ccc(/C=C/C(=O)NO)c(OCc2ccccc2)c1 [Compound 13a, (E)-N-Hydroxy-2-benzyloxy-4-methoxycinnamide]	0.207 ± 0.0134 µM	–
–	–	> 10 µM	COc1ccc(/C=C/C(=O)NO)c(OCc2ccc(Br)cc2)c1 [Compound 13c, (E)-N-Hydroxy-2-(4-bromobenzyloxy)-4-methoxycinnamide]	–	–
–	–	> 10 µM	COc1ccc(COc2cc(OC)ccc2/C=C/C(=O)NO)cc1 [Compound 13d, (E)-N-Hydroxy-2-(4-methoxybenzyloxy)-4-methoxycinnamide]	0.397 ± 0.0127 µM	–
0.38	0.38	> 10 µM	COc1cc(Nc2cc(F)ccc2/C=C/C(=O)NO)cc(OC)c1OC [Compound 15a]	–	–
0.55	0.55	> 10 µM	COc1cc(Nc2cc(C(F)(F)F)ccc2/C=C/C(=O)NO)cc(OC)c1OC [Compound 15b]	–	–
0.44	0.44	> 10 µM	COc1cc(Nc2c(/C=C/C(=O)NO)ccc(OC)c2OC)cc(OC)c1OC [Compound 15d]	–	–
–	–	> 10 µM	COc1ccc(OCCOc2cc(OC)ccc2/C=C/C(=O)NO)cc1 [Compound 18a, (E)-N-Hydroxy-2-(2-(4-methoxyphenoxyoxy)ethoxy)-4-methoxycinnamide]	0.122 ± 0.0035 µM	–
–	–	> 10 µM	COc1ccc(OC(C)COc2cc(OC)ccc2/C=C/C(=O)NO)cc1 (stereo not shown) [Compound 18b, (E)-N-Hydroxy-2-(2-(4-methoxyphenoxyoxy)propoxy)-4-methoxycinnamide]	0.191 ± 0.0022 µM	–
–	–	> 10 µM	CCCC(COc1cc(OC)ccc1/C=C/C(=O)NO)Oc1ccc(OC)cc1 (stereo not shown) [Compound 18d, (E)-N-Hydroxy-2-(2-(4-methoxyphenoxyoxy)pentyloxy)-4-methoxycinnamide]	0.2 ± 0.0065 µM	–
–	–	> 10 µM	COc1ccc(/C=C/C(=O)NO)c(-c2cccc3ccccc23)c1 [Compound 22c, (E)-N-Hydroxy-4-methoxy-2-(naphthalen-1-yl)cinnamide]	0.078 ± 0.0043 µM	–
–	–	> 10 µM	COc1ccc(/C=C/C(=O)NO)c(-c2ccc(C(=O)c3ccccc3)cc2)c1 [Compound 22f, (E)-N-Hydroxy-4-methoxy-2-(4-benzoylphenyl)cinnamide]	0.0418 ± 0.0033 µM	IC50 [8]: > 0.01 µM; IC50 [9]: 0.0084 ± 0.0002 µM; HDAC8 inhibitory activity compared with PCI34051 [1]: superior to PCI34051; IC50 [10]: > 0.01 µM

— patent US11505523B2, “HDAC8 inhibitors for treating cancer” (City of Hope, priority 2013, dated 2022)
